Reference: patent US9782464B2, “Methods and compositions for inhibiting diseases of the central nervous system” (Board of Regents of the University of Nebraska, priority 2008, dated 2017)

Experiments:
[1] = test system: MES23.5 cells; assay: Cathepsin B inhibition and neurotoxicity, microglial supernatants on MES23.5 cells; type: cell-based; conditions: inhibitor 1 μM, N-α-syn 100 nM
Description: MES 23.5 cells were cultured in 75-cm^2 flasks in DMEM/F12 with 15 mM HEPES (Invitrogen) containing N2 supplement (Invitrogen), 100 U/ml of penicillin, 100 μg/ml streptomycin, and 5% FBS. MES23.5 cells is a cell line derived using somatic cell fusion of rat embryonic mesencephalon cells and the murine neuroblastoma-glioma cell line N18TG2 that produce dopamine and express tyrosine hydroxylase (Crawford et al. (1992) J. Neuroscience 12:3392-3398). Cells were grown to 80% confluence then plated at a density of 10×10^4 cells on sterile glass coverslips. Microglia were plated in 6 well plates and incubated for 1 hour with or without 1 μM of cathepsin B inhibitors, CA-074 [cell impermeable] or CA-074 Me [cell permeable] (Sigma), in a 37° C., 5% CO2 incubator to inhibit residual cathepsin B expression (Gan et al. (2004) J. Biol. Chem., 279:5565-5572). […] MES 23.5 cell viability was assessed using the Live/Dead cytotoxicity assay (Invitrogen) as previously described. Live cells were distinguished by the uptake of calcein AM to acquire a green fluorescence [excitation/emission (ex/em) 495/515 nm], while dead cells acquired a red fluorescence (ex/em 495/635 nm) due to the uptake of ethidium homodimer-1 (EthD-1). Cell enumerations were performed using fluorescence microscopy (200× magnification, n=6 wells per group, 3 frames per well).

[2] = test system: B6 SOD1 Tg mice; assay: COP-1 immunization of B6 SOD1 Tg mice

CCCNC(=O)[C@H]1O[C@@H]1C(=O)N[C@H](C(=O)N1CCC[C@H]1C(=O)O)[C@@H](C)CC [CA-074]
protection of DA cells v. N-α-syn alone [1]: 53%

glatiramer acetate [COP-1]
increase of mean age of survival compared to PBS controls ([2]; 75 μg s.c. every other week): 6.1%
increase of mean age of survival compared to PBS controls ([2]; 75 μg s.c. weekly): 9.9%
